These results are taken from ChEMBL document CHEMBL3046631, “Synthesis and Structure-Activity Relationships of Dinotefuran Derivatives: Modification in the Nitroguanidine Part” (2004).

In one test the test system is Nephotettix cincticeps. Description: Insecticidal activity against 1 to 3 day-old adult Nephotettix cincticeps (green rice leafhopper) infested in compound-treated rice seedlings assessed as mortality measured after 3 days. Format: functional.
Another test deals with Laodelphax striatellus. Description: Insecticidal activity against 1 to 3 day-old adult Laodelphax striatella (small brown planthopper) infested compound-treated rice seedlings assessed as mortality measured after 3 days. It is filed as functional.

With `O=[N+]([O-])/N=C1\NCCCCN1CC1CCOC1` (racemic), the figures for the LC70 in the test on Nephotettix cincticeps and in the test with Laodelphax striatellus were 10 ppm and 100 ppm, respectively.

With `O=[N+]([O-])/N=C1\NCCN1CC1CCOC1` (racemic), the LC70 is reported as 1 ppm in the test with Nephotettix cincticeps and 10 ppm in the test with Laodelphax striatellus.

Turning to `CN(Cc1ccccc1)/C(=N\[N+](=O)[O-])N(Cc1ccccc1)CC1CCOC1` (racemic), the LC70 with Nephotettix cincticeps and with Laodelphax striatellus was 10 ppm each time.

In the case of `COC(=O)N(C)/C(=N\[N+](=O)[O-])N(CC1CCOC1)C(=O)OC` (racemic), the LC70 in the test on Nephotettix cincticeps came to 0.1 ppm; with Laodelphax striatellus, 1 ppm.

Turning to `COC(=O)N(CC1CCOC1)/C(=N/[N+](=O)[O-])N(C)C(C)=O` (racemic), the LC70 with Nephotettix cincticeps was 0.1 ppm; in the test with Laodelphax striatellus it was 1 ppm.

With `O=C(c1ccccc1)N1CCCN(CC2CCOC2)/C1=N\[N+](=O)[O-]` (racemic), the LC70 in the test on Nephotettix cincticeps worked out at 0.1 ppm; with Laodelphax striatellus, 10 ppm.

Regarding `CCN/C(=C\[N+](=O)[O-])NCC1CCOC1` (racemic), the LC70 in the test on Nephotettix cincticeps and with Laodelphax striatellus was 10 ppm each time.

Turning to `CCN(C)/C(=N\[N+](=O)[O-])NCC1CCOC1` (racemic), the LC70 with Nephotettix cincticeps and with Laodelphax striatellus was 10 ppm each time.

Take `CCCN(CC1CCOC1)/C(=C/[N+](=O)[O-])NC` (racemic): the LC70 in the test on Nephotettix cincticeps and in the test with Laodelphax striatellus was 10 ppm each time.

Consider `CN/C(=N/CC1CCOC1)N[N+](=O)[O-]` (centres undefined) [DINOTEFURAN], for which the LC70 with Nephotettix cincticeps and in the test with Laodelphax striatellus was 0.1 ppm throughout.

With `CS/C(=C\[N+](=O)[O-])N(C)CC1CCOC1` (racemic), the LC70 with Nephotettix cincticeps and in the test with Laodelphax striatellus was over 1000 ppm in each case.

In the case of `CCN(C(C)=O)/C(=N\[N+](=O)[O-])N(CC1CCOC1)C(C)=O` (racemic), the LC70 with Nephotettix cincticeps and in the test on Laodelphax striatellus was 10 ppm in each case.

As to `COC(=O)N(CC1CCOC1)/C(=N/[N+](=O)[O-])N(C)Cc1ccccc1` (racemic), the figures for the LC70 with Nephotettix cincticeps and in the test with Laodelphax striatellus were 0.1 ppm and 1 ppm, respectively.

Turning to `CC(=O)N/C(=N\[N+](=O)[O-])NCC1CCOC1` (racemic), the LC70 with Nephotettix cincticeps and in the test on Laodelphax striatellus was over 1000 ppm in each case.

With `CN(C)/C(=C\[N+](=O)[O-])N(C)CC1CCOC1` (racemic), the figures for the LC70 in the test on Nephotettix cincticeps and with Laodelphax striatellus were 10 ppm and 1 ppm, respectively.

In the case of `O=C(N/C(=N\[N+](=O)[O-])NCC1CCOC1)c1ccccc1` (racemic), the LC70 with Nephotettix cincticeps and in the test on Laodelphax striatellus was over 1000 ppm in each case.

As for `CN(C)/C(=N\[N+](=O)[O-])NCC1CCOC1` (racemic), the LC70 is on record as 0.1 ppm with Nephotettix cincticeps and 1 ppm with Laodelphax striatellus.

On to `CCN(CC1CCOC1)/C(=N/[N+](=O)[O-])NC` (racemic), for which the LC70 in the test with Nephotettix cincticeps and in the test with Laodelphax striatellus was 10 ppm throughout.

Consider `CN(C)/C(=N\[N+](=O)[O-])N(C)CC1CCOC1` (racemic), for which the LC70 with Nephotettix cincticeps and in the test on Laodelphax striatellus was 10 ppm throughout.

On to `CCCN/C(=C\[N+](=O)[O-])NCC1CCOC1` (racemic), for which the LC70 in the test on Nephotettix cincticeps and in the test on Laodelphax striatellus was 100 ppm throughout.

For `CCN(CC1CCOC1)/C(=C/[N+](=O)[O-])NC` (racemic), the results for the LC70 with Nephotettix cincticeps and with Laodelphax striatellus were 10 ppm and 1 ppm, respectively.

As for `O=[N+]([O-])/C=C1\NCCN1CC1CCOC1` (racemic), the LC70 came out at 0.1 ppm with Nephotettix cincticeps and 10 ppm with Laodelphax striatellus.

Regarding `CN1CCCN(CC2CCOC2)/C1=N/[N+](=O)[O-]` (racemic), the LC70 in the test with Nephotettix cincticeps stood at 10 ppm; in the test on Laodelphax striatellus it was 100 ppm.

Take `N/C(=N\[N+](=O)[O-])NCC1CCOC1` (racemic): the LC70 is 100 ppm in the test with Nephotettix cincticeps and over 1000 ppm with Laodelphax striatellus.

For the compound `CN/C(=N\[N+](=O)[O-])N(C)CC1CCOC1` (racemic), the LC70 with Nephotettix cincticeps and in the test on Laodelphax striatellus was 1 ppm in each case.

`O=[N+]([O-])/C=C1\NCCCN1CC1CCOC1` (racemic): the LC70 in the test with Nephotettix cincticeps is reported as 0.1 ppm; with Laodelphax striatellus it was 1 ppm.

In the case of `O=[N+]([O-])/C=C1\NCCCCN1CC1CCOC1` (racemic), the LC70 was 1 ppm in the test with Nephotettix cincticeps and 10 ppm in the test on Laodelphax striatellus.

On to `CC(=O)N(C)/C(=N\[N+](=O)[O-])N(CC1CCOC1)C(C)=O` (racemic), for which the LC70 in the test on Nephotettix cincticeps and in the test with Laodelphax striatellus was 0.1 ppm each time.

`O=[N+]([O-])/N=C1\NCCCN1CC1CCOC1` (racemic): the LC70 with Nephotettix cincticeps is 0.1 ppm; in the test on Laodelphax striatellus it was 1 ppm.

As for `CS/C(=N\[N+](=O)[O-])NCC1CCOC1` (centres undefined), the LC70 in the test with Nephotettix cincticeps and in the test with Laodelphax striatellus was 10 ppm throughout.

`O=[N+]([O-])/N=C(\NCc1ccccc1)NCC1CCOC1` (racemic): the LC70 in the test on Nephotettix cincticeps and with Laodelphax striatellus was over 1000 ppm each time.

Take `CN(C(=O)c1ccccc1)/C(=N\[N+](=O)[O-])N(CC1CCOC1)C(=O)c1ccccc1` (racemic): the LC70 with Nephotettix cincticeps stood at 0.1 ppm; with Laodelphax striatellus, 1 ppm.

Regarding `CS/C(=N\[N+](=O)[O-])N(C)CC1CCOC1` (racemic), the LC70 in the test on Nephotettix cincticeps and in the test on Laodelphax striatellus was over 1000 ppm in each case.

With `CCN/C(=N\[N+](=O)[O-])NCC1CCOC1` (racemic), the results for the LC70 in the test with Nephotettix cincticeps and in the test with Laodelphax striatellus were 10 ppm and 100 ppm, respectively.

Take `CC(=O)N1CCCN(CC2CCOC2)/C1=N\[N+](=O)[O-]` (racemic): the LC70 with Nephotettix cincticeps worked out at 0.1 ppm; in the test on Laodelphax striatellus, 10 ppm.

`CN/C(=C\[N+](=O)[O-])N(C)CC1CCOC1` (racemic): the LC70 with Nephotettix cincticeps and in the test on Laodelphax striatellus was 1 ppm each time.

As to `COC(=O)N/C(=N\[N+](=O)[O-])NCC1CCOC1` (racemic), the LC70 in the test with Nephotettix cincticeps is 10 ppm; with Laodelphax striatellus it was over 1000 ppm.

`C#CCN/C(=C\[N+](=O)[O-])NCC1CCOC1` (racemic): the LC70 in the test on Nephotettix cincticeps and in the test on Laodelphax striatellus was over 1000 ppm each time.

Turning to `CS/C(=C\[N+](=O)[O-])NCC1CCOC1` (racemic), the LC70 with Nephotettix cincticeps and in the test with Laodelphax striatellus was over 1000 ppm in each case.

As for `CN1CCCN(CC2CCOC2)/C1=C/[N+](=O)[O-]` (racemic), the LC70 with Nephotettix cincticeps and in the test on Laodelphax striatellus was 10 ppm throughout.

As to `CN/C(=C\[N+](=O)[O-])NCC1CCOC1` (racemic), the LC70 in the test with Nephotettix cincticeps and with Laodelphax striatellus was 0.1 ppm each time.

Turning to `CN(C)/C(=C\[N+](=O)[O-])NCC1CCOC1` (racemic), the LC70 with Nephotettix cincticeps was 1 ppm; in the test with Laodelphax striatellus, 0.1 ppm.
